The values below are quoted from earlier work in patent publication US20250134097A1, “PERSISTENT SANITIZER” (priority 2020, published 2025).

For one series, the system named is Adenovirus. The settings on record: in vitro; concentration-dependent; includes non-enveloped virus.
A further series concerns microbes. The settings on record: benzalkonium chloride at 0.1-0.2%.

As to Benzalkonium chloride, the antiviral activity entry in the series with Adenovirus is on record as “some antiviral activity including non-enveloped activity”. The antimicrobial activity result in the series on microbes is given as “Broad antimicrobial activity”.
